Data reported in publication PMC7248905, “Development of UHPLC-MS/MS Method for Indirubin-3′-Oxime Derivative as a Novel FLT3 Inhibitor and Pharmacokinetic Study in Rats” (Molecules, 2020).
Where two headings read alike, the source gives them in different places.

Experiments:
[1] = Stability of LDD-2614 in rat plasma (freeze-thaw, long-term, short-term, autosampler); assay type: in vitro ADME; details: for Measured Concentration: n = 5
Method: Stability studies using three QC samples for freeze-thaw stability (three freeze-thaw cycles lasting 12 h each), long-term stability (sample stored at −80 °C and analyzed after 2 weeks), short-term temperature stability (samples kept at room temperature for 6 h), and post-preparation stability (12 h in autosampler) were evaluated. The measurements of the analytes were compared with those from newly prepared QC samples at the same concentrations. The accuracy (RE) of all analytes ranged from −0.6% to 8.6% for the three freeze-thaw cycles, −5.5% to −2.6% for long-term stability, −3.6% to −0.1% for short-term stability, and −1.5% to 1.5% for post-preparation stability.
Stability was evaluated with rat plasma at the four QC concentrations. Three freeze (−80 °C) and thaw (room temperature, 25 °C and stand for 2 h) cycles, long-term stability (−80 °C for 2 weeks), short-term stability (room temperature for 6 h), and post-extraction stability (12 h in the autosampler at 4 °C) were tested. The concentrations of the prepared stability samples were compared to the QC samples prepared on the day of analysis. The stability samples were considered stable if recovered within 15% compared to the QC sample concentration.

FLT3 = tested on: FLT3; design: method as in PMID 32272419; details: in vitro assays, previous studies; cited from earlier work
MV4-11 xenograft = tested on: MV4-11 xenograft; design: method as in PMID 32272419; details: MV4-11 xenograft animal model, previous studies; cited from earlier work
[2] = Pharmacokinetic study in rats after intravenous and oral administration; assay type: in vivo, Sprague Dawley rats; design: AUC/Dose: unit not given here; details: rat; for AUC(0-t) / clearance / MRT / half-life / Vd / Cmax / bioavailability: male, Sprague Dawley, plasma; for clearance: read-out: CL (time averaged total body clearance); for MRT: read-out: MRT (mean residence time) (converted); for Vd: read-out: Vd,ss (apparent volume of distribution at steady state); for Cmax: read-out: Cmax (maximum plasma concentration)
Text: The validated LC-MS/MS method was successfully implemented to quantify LDD-2614 in Sprague Dawley rat plasma to perform a pharmacokinetic study on LDD-2614 in rats after oral and intravenous administration.
Male Sprague Dawley rats (7–8 weeks, 230–250 g) were supplied from Samtaco (Osan, Korea) and were housed in cages before the experiments. All animal experiments were approved by the Dankook University’s Institutional Animal Care and Use Committee (approval no. DKU-19-029). All rats were kept in a light-controlled room maintained at a temperature of 23 ± 2 °C with 12 h light and dark cycles and a relative humidity of 50% ± 10%. The rats were given ad libitum access to standard food and water and acclimated to the environment for 7 days prior to the experiment.
The rats were fasted for at least 12 h prior to the start of the experiments and freely supplied water. On the morning of the test, the rats were anaesthetized with a mixture of alfaxan and rompun (75:25, v/v). For oral administration studies, the carotid artery was cannulated using a polyethylene tube (PE 60, 0.76 mm i.d., 1.22 mm o.d., Becton Dickinson, Franklin Lakes, NJ, USA) for efficient blood sampling. For intravenous administration studies, the carotid artery and jugular veins were cannulated for blood sampling and drug administration, respectively. Each cannula was exteriorized to the dorsal side of the neck. Then, each rat was individually housed in a rat metabolism cage and allowed to move freely. A recovery time of 3–4 h from anesthesia was allowed before drug administration. The rats were randomly divided into six groups as follows: the first three groups were orally administered LDD-2614 (4 mL/kg dissolved in distilled water) using a gastric gavage tube at doses of 1, 5, and 20 mg/kg, and the remaining three groups were intravenously injected over 1 min with LDD-2614 (4 mL/kg dissolved in distilled water) at doses of 1, 5, and 20 mg/kg. Samples of approximately 0.2 mL of blood were immediately collected via the carotid artery at 0 (before administration), 5, 15, 30, 60, 90, 120, 180, 240, 360, 480, and 1440 min after oral and intravenous administration. For intravenous administration, a sampling time of 1 min after administration was also added, and the remaining times were the same. The blood samples were immediately centrifuged at 12,000 rpm for 5 min. Each plasma sample was transferred into a new microtube and stored at −80 °C until used for LC–MS/MS analysis.
All data are expressed as mean ± standard deviation. The pharmacokinetic parameters were calculated using Phoenix WinNonlin 2.1 (Pharmasight, Mountain View, CA, USA). A noncompartmental model was used.

MV4-11 cells = tested on: MV4-11 cells; design: method as in PMID 32272419; details: AML line of MV4-11 cells, previous studies; cited from earlier work
[3] = extracted rat plasma, autosampler 4 °C 12 h, nominal 0.3 ng/mL
[4] = extracted rat plasma, autosampler 4 °C 12 h, nominal 150 ng/mL
[5] = extracted rat plasma, autosampler 4 °C 12 h, nominal 400 ng/mL
[6] = rat plasma, long-term −80 °C 2 weeks, nominal 0.3 ng/mL
[7] = rat plasma, long-term −80 °C 2 weeks, nominal 150 ng/mL
[8] = rat plasma, long-term −80 °C 2 weeks, nominal 400 ng/mL
[9] = rat plasma, short-term room temp 6 h, nominal 0.3 ng/mL
[10] = rat plasma, short-term room temp 6 h, nominal 150 ng/mL
[11] = rat plasma, short-term room temp 6 h, nominal 400 ng/mL
[12] = rat plasma, three freeze-thaw cycles, nominal 0.3 ng/mL
[13] = rat plasma, three freeze-thaw cycles, nominal 150 ng/mL
[14] = rat plasma, three freeze-thaw cycles, nominal 400 ng/mL

**Q.** For O=C1Nc2ccc(F)cc2C1=C1Nc2ccc(F)cc2C1=NOCCN1CCNCC1 [LDD-2614], which “Accuracy (RE)” value [1, 3] is on record?
**A.** Its value is −1.1%.

**Q.** What about the “Measured Concentration” value [1, 3] of the same compound?
**A.** The value was 0.30 ± 0.03 ng/mL.

**Q.** What about the “Accuracy (RE)” value [1, 4] of the same compound?
**A.** The value was −1.5%.

**Q.** What about the “Measured Concentration” value [1, 4] of the same compound?
**A.** The value was 147.8 ± 2.98 ng/mL.

**Q.** And the “Accuracy (RE)” value [1, 5]?
**A.** The value was 1.5%.

**Q.** And the “Measured Concentration” value [1, 5]?
**A.** The value was 410.2 ± 24.3 ng/mL.

**Q.** And the “degradation under the different storage and analysis conditions” value ([1]; rat plasma, freeze-thaw, long-term, short-term, post-preparation)?
**A.** Its value is “no significant degradation observed”.

**Q.** And the “Accuracy (RE)” value [1, 6]?
**A.** The value was −4.8%.

**Q.** And the “Measured Concentration” value [1, 6]?
**A.** Its value is 0.29 ± 0.02 ng/mL.

**Q.** And the “Accuracy (RE)” value [1, 7]?
**A.** Its value is −2.6%.

**Q.** And the “Measured Concentration” value [1, 7]?
**A.** Its value is 146.1 ± 0.65 ng/mL.

**Q.** And the “Accuracy (RE)” value [1, 8]?
**A.** Its value is “–5.5%”.

**Q.** What about the “Measured Concentration” value [1, 8] of the same compound?
**A.** Its value is 378.1 ± 17.7 ng/mL.

**Q.** And the “Accuracy (RE)” value [1, 9]?
**A.** Its value is −0.1%.

**Q.** And the “Measured Concentration” value [1, 9]?
**A.** The value was 0.30 ± 0.03 ng/mL.

**Q.** And the “Accuracy (RE)” value [1, 10]?
**A.** Its value is −3.6%.

**Q.** And the “Measured Concentration” value [1, 10]?
**A.** Its value is 144.6 ± 6.46 ng/mL.

**Q.** What about the “Accuracy (RE)” value [1, 11] of the same compound?
**A.** The value was −1.2%.

**Q.** What about the “Measured Concentration” value [1, 11] of the same compound?
**A.** Its value is 395.1 ± 13.0 ng/mL.

**Q.** And the “Accuracy (RE)” value [1, 12]?
**A.** Its value is 8.6%.

**Q.** What about the “Measured Concentration” value [1, 12] of the same compound?
**A.** Its value is 0.33 ± 0.02 ng/mL.

**Q.** What about the “Accuracy (RE)” value [1, 13] of the same compound?
**A.** The value was −0.6%.

**Q.** What about the “Measured Concentration” value [1, 13] of the same compound?
**A.** Its value is 149.1 ± 1.31 ng/mL.

**Q.** And the “Accuracy (RE)” value [1, 14]?
**A.** Its value is −0.3%.

**Q.** What about the “Measured Concentration” value [1, 14] of the same compound?
**A.** Its value is 398.9 ± 6.04 ng/mL.

**Q.** And the FLT3 inhibition (FLT3)?
**A.** Its FLT3 inhibition is “FLT3 inhibition”.

**Q.** What about the “in vivo antitumor activity” value (MV4-11 xenograft) of the same compound?
**A.** Its value is “significant in vivo antitumor activity”.

**Q.** And the AUC(0-t) ([2]; intravenous, 1 mg/kg, n = 7, mean ± SD)?
**A.** The AUC(0-t) was 0.635 µg·h/mL.

**Q.** What about the clearance ([2]; intravenous, 1 mg/kg) of the same compound?
**A.** The clearance was 1.84 ± 0.816 L/h/kg.

**Q.** What about the MRT ([2]; intravenous, 1 mg/kg) of the same compound?
**A.** Its MRT is 4.53 h.

**Q.** What about the half-life ([2]; intravenous, 1 mg/kg, read-out: T1/2 (terminal half-life)) of the same compound?
**A.** The half-life was 4.91 ± 0.542 h.

**Q.** What about the Vd ([2]; intravenous, 1 mg/kg) of the same compound?
**A.** Its Vd is 9.62 ± 3.38 L/kg.

**Q.** What about the AUC(0-t) ([2]; intravenous, 5 mg/kg, n = 5, mean ± SD) of the same compound?
**A.** The AUC(0-t) was 3.51 µg·h/mL.

**Q.** And the clearance ([2]; intravenous, 5 mg/kg)?
**A.** Its clearance is 1.25 ± 0.504 L/h/kg.

**Q.** What about the MRT ([2]; intravenous, 5 mg/kg) of the same compound?
**A.** Its MRT is 4.76 h.

**Q.** What about the half-life ([2]; intravenous, 5 mg/kg, read-out: T1/2 (terminal half-life)) of the same compound?
**A.** The half-life was 3.31 ± 0.575 h.

**Q.** And the Vd ([2]; intravenous, 5 mg/kg)?
**A.** Its Vd is 6.42 ± 2.44 L/kg.

**Q.** What about the AUC(0-t) ([2]; intravenous, 20 mg/kg, n = 6, mean ± SD) of the same compound?
**A.** Its AUC(0-t) is 14.4 µg·h/mL.

**Q.** And the clearance ([2]; intravenous, 20 mg/kg)?
**A.** The clearance was 1.39 ± 0.222 L/h/kg.

**Q.** What about the MRT ([2]; intravenous, 20 mg/kg) of the same compound?
**A.** Its MRT is 5.88 h.

**Q.** What about the half-life ([2]; intravenous, 20 mg/kg, read-out: T1/2 (terminal half-life)) of the same compound?
**A.** Its half-life is 3.38 ± 0.778 h.

**Q.** And the Vd ([2]; intravenous, 20 mg/kg)?
**A.** Its Vd is 8.67 ± 2.08 L/kg.

**Q.** What about the half-life ([2]; intravenous, dose range 1–20 mg/kg, terminal phase, read-out: half-life (T1/2)) of the same compound?
**A.** The half-life was 3 to 4 h.

**Q.** What about the AUC(0-t) ([2]; oral, 1 mg/kg, n = 6, mean ± SD) of the same compound?
**A.** Its AUC(0-t) is 0.0738 µg·h/mL.

**Q.** And the Cmax ([2]; oral, 1 mg/kg)?
**A.** Its Cmax is 0.00596 ± 0.00177 µg/mL.

**Q.** And the bioavailability ([2]; oral, 1 mg/kg, read-out: F (bioavailability))?
**A.** The bioavailability was 11.7%.

**Q.** And the AUC(0-t) ([2]; oral, 5 mg/kg, n = 6, mean ± SD)?
**A.** Its AUC(0-t) is 0.39 µg·h/mL.

**Q.** What about the Cmax ([2]; oral, 5 mg/kg) of the same compound?
**A.** The Cmax was 0.0437 ± 0.0082 µg/mL.

**Q.** And the bioavailability ([2]; oral, 5 mg/kg, read-out: F (bioavailability))?
**A.** Its bioavailability is 11.1%.

**Q.** And the AUC(0-t) ([2]; oral, 20 mg/kg, n = 5, mean ± SD)?
**A.** The AUC(0-t) was 1.02 µg·h/mL.

**Q.** And the Cmax ([2]; oral, 20 mg/kg)?
**A.** The Cmax was 0.12 ± 0.0334 µg/mL.

**Q.** What about the bioavailability ([2]; oral, 20 mg/kg, read-out: F (bioavailability)) of the same compound?
**A.** Its bioavailability is 7.1%.

**Q.** What about the bioavailability ([2]; oral, doses 1–20 mg/kg, compared with intravenous AUClast, read-out: bioavailability after oral administration) of the same compound?
**A.** Its bioavailability is 7.1 to 11.7%.

**Q.** And the AUC/Dose ([2]; intravenous, 1 mg/kg)?
**A.** Its AUC/Dose is 38.1 ± 18.5.

**Q.** And the AUC/Dose ([2]; intravenous, 5 mg/kg)?
**A.** The AUC/Dose was 42.1 ± 12.9.

**Q.** And the AUC/Dose ([2]; intravenous, 20 mg/kg)?
**A.** The AUC/Dose was 43.2 ± 7.5.

**Q.** And the “dose linearity of pharmacokinetics” value ([2]; intravenous, dose range 1–20 mg/kg)?
**A.** Its value is “linear pharmacokinetic characteristics were observed”.

**Q.** What about the AUC/Dose ([2]; oral, 1 mg/kg) of the same compound?
**A.** The AUC/Dose was 4.43 ± 0.39.

**Q.** What about the AUC/Dose ([2]; oral, 5 mg/kg) of the same compound?
**A.** Its AUC/Dose is 4.69 ± 3.05.

**Q.** What about the AUC/Dose ([2]; oral, 20 mg/kg) of the same compound?
**A.** The AUC/Dose was 3.05 ± 1.24.

**Q.** And the “increase in AUC” value ([2]; oral, 20 mg/kg versus 5 mg/kg (four-fold increase in dose))?
**A.** The value was “approximately 2.5 fold”.

**Q.** And the anti-proliferative activity (MV4-11 cells)?
**A.** Its anti-proliferative activity is “anti-proliferative activity”.
